This note sets out measurements from US20260097111A1, “ETHER LIPIDS FOR HYPERACTIVATION OF MAMMALIAN DENDRITIC CELLS” (priority 2022, published 2026).

Data set [1] in a line: Serum chemokines and cytokines after SC injection. In kind it is in vivo, mice. The conditions noted are these: SC injection; 2, 24 and 48 hours post injection; FIG. 49. The protocol:
Lipid Preparation. […] Lipids were used for chemical injections or DC treatment within one hour of their preparation.
Subcutaneous (SC) Injection. Mice were placed under Isoflurane for a few min for anesthesia. Tubes containing the chemicals were vortexed for 30 seconds, then loaded with a 1 mL Sub-Q syringe.
Blood Collection. Mice were placed under Isoflurane for approximately 10 min for anesthesia. Using a 21G needle, mice were gently poked through the skin to the submandibular space to induce bleeding. Five-Six drops were collected in a mini collect K2EDTA blood collection tube. Blood samples were transported back to Corner Therapeutics lab on ice. The blood was then centrifuged at 1500×g for 5 min. After centrifugation, blood was collected into a 96-well round bottom plate and stored at −80° C.
Measurement of Serum Chemokines and Cytokines. Secreted cytokines were measured in the supernatant by cytokine bead array using the LEGENDplex™ Mouse Murine Proinflammatory Chemokine, Murine Cytokine Release Syndrome Legendplex and LEGENDplex™ Mouse Cytokine Panel 2 (Biolegend) according to the manufacturer's protocol. Data were collected using a Quanteon Novocyte flow cytometer and analyzed using the cloud-based software provided by Biolegend.

In data set [2] the test system is myeloid cells in dLN and spleen. The experiment in a line: Myeloid cells in dLN and spleen after SC injection (flow cytometry). It counts as in vivo, mice. The source says:
dLN Dissection and Dissociation. […] The dLN were then transported on ice to Corner Therapeutics labs. The dLN was then processed using a Miltenyi spleen dissociation kit according to manufacturer's protocol. In brief, the dLN from each mouse was transferred into the gentleMACS C Tube containing the enzyme mix. The dLN were then dissociated using the gentleMACS Program 37C_m_SDK_1. Cell suspensions were then collected and filtered through a 30 μm Pre-Separation Filter. Cells were counted using the Moxi automated counter, then resuspended in 400 ul of FACS buffer for cell staining.
Spleen Dissection and Dissociation. […] The spleen samples were then transported on ice to Corner Therapeutics labs. Spleen samples were then processed a Miltenyi spleen dissociation kit according to manufacturer's protocol. In brief, each spleen was transferred into the gentleMACS C Tube containing the enzyme mix. The spleens were then dissociated using the gentleMACS program 37C_m_SDK_1. ACK lysis was performed for 2 min. Cell suspensions were then collected and filtered through a 30 μm Pre-Separation Filter. Cells were counted using the Moxi automated counter, then resuspended in 400 ul of FACS buffer for cell staining.
Flow Cytometry. Single cell suspension from the draining lymph or spleen were resuspended in 100 μL PBS containing Live/Dead Violet (1:1000) and incubated for 20 min at 4° C. Cells were then washed and resuspend in 100 μL FACS buffer containing Fc block (1:100) for 10 min. For myeloid cell staining, cells were then resuspended in 100 μL of antibodies detailed in Table 13-1 to identify monocytes as CD11b^+ Ly6C^+F4/80^neg MHC^neglive cells, moDCs as CD11b^+ Ly6C^+F4/80^neg MHC^+ live cells, macrophages as F4/80^+ MHC^+CD24^neg live cells, and DCs as CD11c^+MHC-II^+ F4/80^neg live cells. Counter Bright counting beads were added before the acquisition of samples.
Background: A flow cytometer gives signals particle by particle.

Consider `CCCCCCCCCCCCCCCCCCCCCCOC[C@@H](O)COP(=O)(O)O` [Compound 2, 1-docosyl-sn-glycerol-3-phosphate], for which, in data set [1], the “cytokine and chemokine release in the serum” value is recorded as “unable to induce any cytokine or chemokine release in the serum at any timepoint”. For the same compound, the “absolute number of monocytes in the dLN” value in data set [2] (4 hours post SC injection vs PBS, FIG. 50A) is reported as “did not induce an increase in the absolute number of cells in the dLN at 4 hours”. The “absolute number of moDCs in the dLN” value in data set [2] (4 hours post SC injection vs PBS, FIG. 50B) is “did not induce an increase in the absolute number of moDCs in the dLN”. Moreover, the “CD69 MFI on myeloid cells in the dLN” value in data set [2] (4 hours post SC injection vs PBS, FIG. 52A-D) is listed as “did not induce CD69 upregulation on myeloid cells in the dLN”. The “CD69 MFI on myeloid cells in the spleen” value in data set [2] (4 hours post SC injection vs PBS, FIG. 53A-D) is “did not induce the upregulation of CD69 on myeloid cells in the spleen”. In data set [2] (4 hours post SC injection, FIG. 54A-B), the “CCR7 MFI on DCs in the dLN and spleen” value is listed as “did not induce the upregulation of CCR7”. Moreover, in data set [2] (48 hours post SC injection vs PBS, FIG. 51A), the “monocytes in the spleen” value is recorded as “decreased the levels of monocytes in the spleen”. Moreover, the “abundance of macrophages and cDCs in the dLN” value in data set [2] (48 hours post SC injection, FIG. 50C-D) is on record as “did not increase”.
